This passage reports melting point results from US8394825B2, “Compound” (Sterix Limited, priority 2007, dated 2013).

Regarding `COc1cc2c(cc1O)C(OC)CN(Cc1cc(OC)c(OC)c(OC)c1)C2` (stereo not shown) [F33, 4,7-Dimethoxy-2-(3,4,5-trimethoxybenzyl)-1,2,3,4-tetrahydro-isoquinolin-6-ol], the melting point lay within 51 to 54 °C.

As for `CCOC1CN(Cc2ccccc2OC)Cc2cc(OC)c(O)cc21` (stereo not shown) [F34, 4-Ethoxy-7-methoxy-2-(2-methoxybenzyl)-1,2,3,4-tetrahydroisoquinolin-6-ol], the melting point is 101 to 102 °C.

`CCOC1CN(Cc2cccc(OC)c2)Cc2cc(OC)c(O)cc21` (stereo not shown) [F35, 4-Ethoxy-7-methoxy-2-(3-methoxy-benzyl)-1,2,3,4-tetrahydroisoquinolin-6-ol] returned a melting point of 134 to 135 °C.

Compound `CCOC1CN(Cc2ccc(OC)cc2)Cc2cc(OC)c(O)cc21` (stereo not shown) [F36, 4-Ethoxy-7-methoxy-2-(4-methoxybenzyl)-1,2,3,4-tetrahydroisoquinolin-6-ol] came in with a melting point of 154 to 157 °C.

Take `CCOC1CN(Cc2cc(OC)c(OC)c(OC)c2)Cc2cc(OC)c(O)cc21` (stereo not shown) [F37, 4-Ethoxy-7-methoxy-2-(3,4,5-trimethoxybenzyl)-1,2,3,4-tetrahydroisoquinolin-6-ol]: the melting point was in the range of 94 to 96 °C.

With `COc1cc2c(cc1OCc1ccccc1)CCN(Cc1cccc([N+](=O)[O-])c1)C2` [compound 10, 6-Benzyloxy-7-methoxy-2-(3-nitrobenzyl)-1,2,3,4-tetrahydroisoquinoline], the melting point was in the range of 109 to 110 °C.

As to `COc1cc2c(cc1OCc1ccccc1)CCN(Cc1cccnc1)C2` [compound 11, 6-Benzyloxy-7-methoxy-2-(pyridin-3-ylmethyl)-1,2,3,4-tetrahydroisoquinoline], the melting point was 78 to 79 °C.

`COc1cc2c(cc1OCc1ccccc1)CCN(Cc1ccccn1)C2` [compound 12, 6-Benzyloxy-7-methoxy-2-(pyridin-2-ylmethyl)-1,2,3,4-tetrahydroisoquinoline] came in with a melting point of 73 to 74 °C.

In turn, `COc1cc2c(cc1OCc1ccccc1)CCN(Cc1ccncc1)C2` [compound 13, 6-Benzyloxy-7-methoxy-2-(pyridin-4-ylmethyl)-1,2,3,4-tetrahydroisoquinoline] returned a melting point of 125 to 126 °C.

`COc1ccc(CCN2CCc3cc(OCc4ccccc4)c(OC)cc3C2)cc1` [compound 14, 6-Benzyloxy-7-methoxy-2-(4-methoxyphenethyl)-1,2,3,4-tetrahydroisoquinoline]: the melting point fell in the range of 88 to 89 °C.

Compound `COc1ccc(C(=O)CN2CCc3cc(OCc4ccccc4)c(OC)cc3C2)cc1OC` [compound 15, 6-Benzyloxy-2-(2-(3,4-dimethoxyphenyl)-2-oxoethyl)-7-methoxy-1,2,3,4-tetrahydroisoquinoline] showed a melting point of 126 to 127 °C.

The compound `COc1ccc(CN2CCc3cc(OCc4ccccc4)c(OC)cc3C2)cc1OC` [compound 18, 6-Benzyloxy-7-methoxy-2-(3,4-dimethoxybenzyl)-1,2,3,4-tetrahydroisoquinoline] came in with a melting point of 98 to 99 °C.

As for `COc1cc2c(cc1OCc1ccccc1)CCN(Cc1cccc(O)c1)C2` [compound 30, 6-Benzyloxy-2-(3-hydroxybenzyl)-7-methoxy-1,2,3,4-tetrahydroisoquinoline], the melting point was 78 to 79 °C.

In turn, `COc1cc2c(cc1OCc1ccccc1)CCN(Cc1cccc(NC(C)=O)c1)C2` [compound 35, 2-(3-Acetamidobenzyl)-6-(benzyloxy)-7-methoxy-1,2,3,4-tetrahydroisoquinoline] gave a melting point of 63 to 66 °C.

The compound `COc1cc2c(cc1OCc1ccccc1)CCN(Cc1cccc(NS(C)(=O)=O)c1)C2` [compound 36, 6-(Benzyloxy)-2-(3-methanesulfonylaminobenzyl)-7-methoxy-1,2,3,4-tetrahydroisoquinoline] had a melting point of 132 to 133 °C.

Consider `COc1cccc(CN2CCc3cc(O)ccc3C2)c1` [compound 37, 6-Hydroxy-2-(3-methoxybenzyl)-1,2,3,4-tetrahydroisoquinoline], for which the melting point fell in the range of 223 to 224 °C.
